Source: US20210220345A1, “METHODS FOR THE ADMINISTRATION OF COMT INHIBITORS” (Neurocrine Biosciences, Inc., priority 2018, published 2021)

Experiments:
[1] = clinical; details: human, in vivo
Method: This was a Phase 1, open-label, one-sequence crossover, drug-interaction study to evaluate and compare the PK of repaglinide when administered alone and concomitantly with OPC (micronized). Subjects received a single dose of repaglinide 0.5 mg on Days 1 and 15 at approximately 0800 hours. In addition, subjects received OPC 50 mg once daily on Days 2 through 15 at approximately 0800 hours.
Subjects were required to fast overnight from midnight (2400 hours) until 2 hours postdose on Days 1 through 15. Blood samples for pharmacokinetic analysis of OPC and its metabolites and for repaglinide were collected at scheduled times during the study. Safety and tolerability assessments were conducted at scheduled times during the study.
Blood samples to determine repaglinide plasma concentrations were collected on Days 1 and 15 at approximately 30 minutes prior to repaglinide dosing and at 0.25, 0.5, 0.75, 1, 1.5, 2, 3, 4, 5, 6, 8, 10, 12, and 24 hours post-repaglinide dosing.
PK parameters for OPC and its metabolites and repaglinide were calculated using non-compartmental methods.
A statistical assessment of the drug-drug interaction between repaglinide and opicapone is provided below. A repeated measures linear mixed model with fixed effect for treatment and random effect for subject was utilized. An unstructured variance-covariance matrix was assumed for the mixed model analysis. Geometric means (GM), ratios of geometric means (GMR), and their confidence intervals (CI) are shown on the original scale of measurement. Within-Subject CV was calculated as 100*sqrt[(sA2+sC2−2sAC)/2], where sA2 and sC2 are the estimated variances on the log scale for the two treatments, and sAC is the corresponding estimated covariance.

[2] = cited from earlier work
[3] = biological target: T1, CYP2C8 (Homo sapiens, UniProt P10632); details: statement of the European approved drug label; cited from earlier work
T1 sequence (P10632 1-490): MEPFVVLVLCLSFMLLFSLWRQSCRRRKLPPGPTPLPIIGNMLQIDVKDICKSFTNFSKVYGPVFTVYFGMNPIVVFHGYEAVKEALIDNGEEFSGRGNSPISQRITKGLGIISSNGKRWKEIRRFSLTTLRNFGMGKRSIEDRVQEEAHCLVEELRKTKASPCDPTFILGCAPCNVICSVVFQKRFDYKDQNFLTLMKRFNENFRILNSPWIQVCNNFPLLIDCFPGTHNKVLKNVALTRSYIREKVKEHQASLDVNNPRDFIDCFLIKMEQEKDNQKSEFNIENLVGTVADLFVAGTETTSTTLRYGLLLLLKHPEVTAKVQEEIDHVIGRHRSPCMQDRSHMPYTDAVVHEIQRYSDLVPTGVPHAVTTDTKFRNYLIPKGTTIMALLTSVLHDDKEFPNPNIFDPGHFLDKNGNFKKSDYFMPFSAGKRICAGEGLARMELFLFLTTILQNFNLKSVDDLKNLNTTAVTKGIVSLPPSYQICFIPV

[4] = non-micronized opicapone 25 mg single dose, repaglinide 0.5 mg

| SMILES | Tmax [1] | half-life [1] | AUC(0-inf) ([1]; AUC0-inf, GM) | AUC(0-t) ([1]; AUC0-t, GM) | Cmax ([1]; Cmax, GM) | increase in repaglinide AUC0-tlast when taken with opicapone vs. repaglinide alone [2, 4] | increase in repaglinide Cmax when taken with opicapone vs. repaglinide alone [2, 4] | average increase in the rate of exposure to repaglinide when co-administered with opicapone ([2]; opicapone 25 mg, less than optimal formulation, rate but not extent of exposure increased) | inhibition of CYP2C8 [3] |
| --- | --- | --- | --- | --- | --- | --- | --- | --- | --- |
| CCOc1cc(CC(=O)N[C@@H](CC(C)C)c2ccccc2N2CCCCC2)ccc1C(=O)O [Repaglinide, repaglinide] | 30 min | 38.4 min | 11.6 ng·h/mL | 10.9 ng·h/mL | 10.1 ng/mL |  |  |  |  |
| Cc1c(Cl)c(C)[n+]([O-])c(Cl)c1-c1noc(-c2cc(O)c(O)c([N+](=O)[O-])c2)n1 [opicapone, 5-[3-(2,5-dichloro-4,6-dimethyl-1-oxy-pyridin-3-yl)-[1,2,4]oxadiazol-5-yl]-3-nitrobenzene-1,2-diol] |  |  |  |  |  | 9% | 31% | 30% | weak inhibitor |
